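Five concentrations, 48 hours, 96-well plates. The concentration for 50% growth inhibition is given as GI50.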 Activity calls are given as the source filed them. Cut-off read from the data, not from the text of the source: active = GI50 up to about 1.1 µM and inactive = higher.
How the values were obtained:
Assay in all cases: inhibition of tumour cell growth, NCI panel, 48 h
786-0 = test system: 786-0
A498 = test system: A498
CAKI-1 = test system: CAKI-1
COLO 205 = test system: COLO 205
DU-145 = test system: DU-145
HCC 2998 = test system: HCC 2998
HL-60 = test system: HL-60
HT-29 = test system: HT-29
LOX IMVI = test system: LOX IMVI
Malme-3M = test system: Malme-3M
NCI-H522 = test system: NCI-H522
OVCAR-5 = test system: OVCAR-5
SF-268 = test system: SF-268
SK-MEL-28 = test system: SK-MEL-28
SK-MEL-5 = test system: SK-MEL-5
SN12C = test system: SN12C
SNB-75 = test system: SNB-75
HOP-92 = test system: HOP-92
T47D = test system: T47D

Q: For COC1(OC)CCCc2c1no[n+]2[O-], which GI50 (786-0) is on record?
A: > 100 µM (inactive)

Q: What about the GI50 (A498) of the same molecule?
A: > 100 µM (inactive)

Q: What about the GI50 (CAKI-1) of the same molecule?
A: > 100 µM (inactive)

Q: And the GI50 (COLO 205)?
A: > 100 µM (inactive)

Q: And the GI50 (DU-145)?
A: > 100 µM (inactive)

Q: And the GI50 (HCC 2998)?
A: > 100 µM (inactive)

Q: What about the GI50 (HL-60) of the same molecule?
A: > 100 µM (inactive)

Q: What about the GI50 (HT-29) of the same molecule?
A: > 100 µM (inactive)

Q: What about the GI50 (LOX IMVI) of the same molecule?
A: > 100 µM (inactive)

Q: And the GI50 (Malme-3M)?
A: > 100 µM (inactive)

Q: And the GI50 (NCI-H522)?
A: > 100 µM (inactive)

Q: What about the GI50 (OVCAR-5) of the same molecule?
A: > 100 µM (inactive)

Q: What about the GI50 (SF-268) of the same molecule?
A: > 100 µM (inactive)

Q: And the GI50 (SK-MEL-28)?
A: > 100 µM (inactive)

Q: And the GI50 (SK-MEL-5)?
A: > 100 µM (inactive)

Q: What about the GI50 (SN12C) of the same molecule?
A: > 100 µM (inactive)

Q: And the GI50 (SNB-75)?
A: 79.4 µM (inactive)

Q: With Oc1ccccc1/C=N/Nc1nnc2c3ccccc3c3ccccc3c2n1 as the molecule, how does the GI50 (786-0) read?
A: > 100 µM (inactive)

Q: And the GI50 (A498)?
A: > 100 µM (inactive)

Q: What about the GI50 (CAKI-1) of the same molecule?
A: > 100 µM (inactive)

Q: What about the GI50 (COLO 205) of the same molecule?
A: > 100 µM (inactive)

Q: What about the GI50 (DU-145) of the same molecule?
A: > 100 µM (inactive)

Q: And the GI50 (HL-60)?
A: > 100 µM (inactive)

Q: And the GI50 (HOP-92)?
A: > 100 µM (inactive)

Q: And the GI50 (HT-29)?
A: > 100 µM (inactive)

Q: And the GI50 (LOX IMVI)?
A: 84.3 µM (inactive)

Q: What about the GI50 (Malme-3M) of the same molecule?
A: 59.6 µM (inactive)

Q: And the GI50 (NCI-H522)?
A: 20 µM (inactive)

Q: And the GI50 (OVCAR-5)?
A: > 100 µM (inactive)

Q: And the GI50 (SF-268)?
A: > 100 µM (inactive)

Q: What about the GI50 (SK-MEL-28) of the same molecule?
A: > 100 µM (inactive)

Q: What about the GI50 (SK-MEL-5) of the same molecule?
A: 48.3 µM (inactive)

Q: What about the GI50 (SN12C) of the same molecule?
A: > 100 µM (inactive)

Q: What about the GI50 (SNB-75) of the same molecule?
A: 20.8 µM (inactive)

Q: What about the GI50 (T47D) of the same molecule?
A: 65 µM (inactive)

Q: Cc1c(C#N)c(N)n(C2OC(CO)C(O)C(O)C2O)c(=S)c1C#N (configuration not stated) was tested. Which GI50 (786-0) did it give?
A: > 100 µM (inactive)

Q: What about the GI50 (A498) of the same molecule?
A: > 100 µM (inactive)

Q: What about the GI50 (DU-145) of the same molecule?
A: > 100 µM (inactive)

Q: And the GI50 (HCC 2998)?
A: > 100 µM (inactive)

Q: What about the GI50 (HL-60) of the same molecule?
A: > 100 µM (inactive)

Q: And the GI50 (HOP-92)?
A: > 100 µM (inactive)

Q: And the GI50 (HT-29)?
A: > 100 µM (inactive)

Q: And the GI50 (LOX IMVI)?
A: > 100 µM (inactive)

Q: And the GI50 (Malme-3M)?
A: > 100 µM (inactive)

Q: What about the GI50 (NCI-H522) of the same molecule?
A: > 100 µM (inactive)

Q: What about the GI50 (OVCAR-5) of the same molecule?
A: > 100 µM (inactive)

Q: And the GI50 (SF-268)?
A: > 100 µM (inactive)

Q: And the GI50 (SK-MEL-28)?
A: > 100 µM (inactive)

Q: What about the GI50 (SK-MEL-5) of the same molecule?
A: > 100 µM (inactive)

Q: What about the GI50 (SN12C) of the same molecule?
A: > 100 µM (inactive)

Q: What about the GI50 (SNB-75) of the same molecule?
A: > 100 µM (inactive)

Q: What does the source list for CN(C)/C=N\c1nncc2[nH]nnc12?
A: GI50 (786-0): > 100 µM (inactive); GI50 (A498): > 100 µM (inactive); GI50 (CAKI-1): > 100 µM (inactive); GI50 (COLO 205): > 100 µM (inactive); GI50 (DU-145): > 100 µM (inactive); GI50 (HL-60): 5.97 µM (inactive); GI50 (HT-29): > 100 µM (inactive); GI50 (OVCAR-5): > 100 µM (inactive); GI50 (SF-268): > 100 µM (inactive); GI50 (SK-MEL-28): > 100 µM (inactive); GI50 (SK-MEL-5): > 100 µM (inactive); GI50 (SN12C): > 100 µM (inactive); GI50 (SNB-75): > 100 µM (inactive); GI50 (T47D): > 100 µM (inactive)

Q: How did the GI50 (786-0) turn out when CN1CC[C@@]2(c3cccc(O)c3)CC(=O)/C(=C/c3ccc(Cl)c(Cl)c3)[C@H]1C2 was run?
A: 1.71 µM (inactive)

Q: What about the GI50 (A498) of the same molecule?
A: 13.6 µM (inactive)

Q: What about the GI50 (DU-145) of the same molecule?
A: 5.04 µM (inactive)

Q: What about the GI50 (HCC 2998) of the same molecule?
A: 1.82 µM (inactive)

Q: What about the GI50 (HL-60) of the same molecule?
A: 1.52 µM (inactive)

Q: What about the GI50 (HOP-92) of the same molecule?
A: 4.49 µM (inactive)

Q: And the GI50 (HT-29)?
A: 1.42 µM (inactive)

Q: And the GI50 (LOX IMVI)?
A: 1.48 µM (inactive)

Q: And the GI50 (Malme-3M)?
A: 3.44 µM (inactive)

Q: What about the GI50 (OVCAR-5) of the same molecule?
A: 4.35 µM (inactive)

Q: What about the GI50 (SF-268) of the same molecule?
A: 2.63 µM (inactive)

Q: What about the GI50 (SK-MEL-28) of the same molecule?
A: 1.93 µM (inactive)

Q: What about the GI50 (SK-MEL-5) of the same molecule?
A: 2 µM (inactive)

Q: And the GI50 (SN12C)?
A: 2.04 µM (inactive)

Q: What about the GI50 (SNB-75) of the same molecule?
A: 1.06 µM (active)

Q: Which results are given for NCCCNCCCNCCCN?
A: GI50 (786-0): > 100 µM (inactive); GI50 (A498): > 100 µM (inactive); GI50 (CAKI-1): > 100 µM (inactive); GI50 (COLO 205): > 100 µM (inactive); GI50 (DU-145): > 100 µM (inactive); GI50 (HCC 2998): > 100 µM (inactive); GI50 (HL-60): > 100 µM (inactive); GI50 (HT-29): > 100 µM (inactive); GI50 (LOX IMVI): > 100 µM (inactive); GI50 (Malme-3M): > 100 µM (inactive); GI50 (NCI-H522): 54.3 µM (inactive); GI50 (OVCAR-5): > 100 µM (inactive); GI50 (SF-268): 3.48 µM (inactive); GI50 (SK-MEL-28): > 100 µM (inactive); GI50 (SK-MEL-5): > 100 µM (inactive); GI50 (SN12C): > 100 µM (inactive); GI50 (T47D): 12.6 µM (inactive)

Q: Which GI50 (786-0) does the source give for Cc1ccc(S(=O)(=O)c2c(N)n(CCN(C)C)c3nc4ccccc4nc23)cc1 here?
A: > 100 µM (inactive)

Q: And the GI50 (COLO 205)?
A: > 100 µM (inactive)

Q: What about the GI50 (HCC 2998) of the same molecule?
A: > 100 µM (inactive)

Q: What about the GI50 (HL-60) of the same molecule?
A: > 100 µM (inactive)

Q: And the GI50 (HOP-92)?
A: > 100 µM (inactive)

Q: What about the GI50 (HT-29) of the same molecule?
A: > 100 µM (inactive)

Q: What about the GI50 (Malme-3M) of the same molecule?
A: > 100 µM (inactive)

Q: What about the GI50 (NCI-H522) of the same molecule?
A: 3.13 µM (inactive)

Q: And the GI50 (OVCAR-5)?
A: > 100 µM (inactive)

Q: What about the GI50 (SF-268) of the same molecule?
A: > 100 µM (inactive)

Q: What about the GI50 (SK-MEL-28) of the same molecule?
A: > 100 µM (inactive)

Q: And the GI50 (SK-MEL-5)?
A: > 100 µM (inactive)

Q: What about the GI50 (SN12C) of the same molecule?
A: > 100 µM (inactive)

Q: What about the GI50 (SNB-75) of the same molecule?
A: > 100 µM (inactive)

Q: What does the source list for Cc1cc2c(cc1-c1cc3c(cc1C)C(C(C)C)=C(O)C(=O)/C3=C\Nc1c(C)n(C)n(-c3ccccc3)c1=O)/C(=C/Nc1c(C)n(C)n(-c3ccccc3)c1=O)C(=O)C(O)=C2C(C)C?
A: GI50 (786-0): 62.1 µM (inactive); GI50 (A498): > 100 µM (inactive); GI50 (CAKI-1): > 100 µM (inactive); GI50 (COLO 205): 82.6 µM (inactive); GI50 (DU-145): > 100 µM (inactive); GI50 (HL-60): 33.9 µM (inactive); GI50 (HOP-92): 78.2 µM (inactive); GI50 (HT-29): > 100 µM (inactive); GI50 (Malme-3M): > 100 µM (inactive); GI50 (NCI-H522): > 100 µM (inactive); GI50 (OVCAR-5): > 100 µM (inactive); GI50 (SF-268): > 100 µM (inactive); GI50 (SK-MEL-28): > 100 µM (inactive); GI50 (SK-MEL-5): 49.9 µM (inactive); GI50 (SN12C): > 100 µM (inactive); GI50 (SNB-75): > 100 µM (inactive); GI50 (T47D): > 100 µM (inactive)

Q: Which results are given for CCc1ccc2c(c1)CC1(C2)Cc2cc3c(cc2C1)C(=O)CC3 (configuration not stated)?
A: GI50 (786-0): 25.6 µM (inactive); GI50 (A498): 10.9 µM (inactive); GI50 (COLO 205): 4.93 µM (inactive); GI50 (HCC 2998): 10.5 µM (inactive); GI50 (HL-60): 2.69 µM (inactive); GI50 (HOP-92): 14.7 µM (inactive); GI50 (HT-29): 6.31 µM (inactive); GI50 (LOX IMVI): 15.4 µM (inactive); GI50 (Malme-3M): 14.9 µM (inactive); GI50 (NCI-H522): 20.3 µM (inactive); GI50 (OVCAR-5): 27.5 µM (inactive); GI50 (SK-MEL-5): 5.01 µM (inactive); GI50 (SN12C): 27 µM (inactive); GI50 (T47D): 12.1 µM (inactive)

Source: ChEMBL document CHEMBL1201862, “PubChem BioAssay data set” (2004)
